Measured values as given in US7268124B2, “Geranylgeranyl pyrophosphate synthase inhibitors” (University of Iowa Research Foundation, priority 2004, dated 2007).
Counter-ions that a name gives are not always drawn.

Assays:
Type in all cases: biochemical
FPP synthase = molecular target: T1, FPP synthase (Homo sapiens, UniProt P14324); experiment: FPP synthase enzyme inhibition; details: mammalian enzyme; also no inhibition at 1 to 10 nanomolar; read-out: FPP synthase: not inhibited at concentrations as high as
T1 sequence (P14324 1-419): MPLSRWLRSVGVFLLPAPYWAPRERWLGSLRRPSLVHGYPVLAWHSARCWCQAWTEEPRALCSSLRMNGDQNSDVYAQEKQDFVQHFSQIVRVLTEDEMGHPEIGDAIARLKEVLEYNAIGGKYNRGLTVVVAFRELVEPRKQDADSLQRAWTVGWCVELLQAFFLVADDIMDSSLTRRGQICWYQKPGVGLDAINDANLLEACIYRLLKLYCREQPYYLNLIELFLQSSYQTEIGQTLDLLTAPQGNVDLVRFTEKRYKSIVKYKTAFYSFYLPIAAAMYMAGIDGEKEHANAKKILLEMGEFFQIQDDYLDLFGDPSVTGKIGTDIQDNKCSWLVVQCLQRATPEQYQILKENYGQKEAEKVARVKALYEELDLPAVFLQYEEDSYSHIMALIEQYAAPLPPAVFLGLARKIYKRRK
Text: (§1) The ability of a compound of the invention to act as an inhibitor of geranylgeranyl pyrophosphate synthase may be determined using pharmacological models which are well known to the art, for example see Holstein, S. A., et al., Biochemistry 2003, 42, 4384-4391; and Ericsson et al, J. Biological Chemistry, 1993, 268, 832-838. The ability of a compound to inhibit FPP synthase, FPTase, and GGPTase can also be determined using pharmacological models which are well known to the art. The selectivity of a compound as an inhibitor of geranylgeranyl pyrophosphate synthase can be evaluated by comparing it's inhibitory activity against this enzyme with it's activity against another enzyme.

FPTase = FPTase (Homo sapiens, UniProt P49356); experiment: FPTase enzyme inhibition; details: mammalian enzyme; also no inhibition at 1 to 10 nanomolar; read-out: FPTase: not inhibited at concentrations as high as
Text: as §1, with “enzyme. In one embodiment of the invention, the compound of the invention is at least 2-fold selective for inhibiting geranylgeranyl pyrophosphate synthase compared to farnesylpyrophosphate. In another embodiment the compound is at least 10-fold selective for inhibiting geranylgeranyl pyrophosphate synthase compared to farnesylpyrophosphate. In another embodiment the compound is at least about 100-fold selective for inhibiting geranylgeranyl pyrophosphate synthase compared to farnesylpyrophosphate. In another embodiment of the invention, the compound of the invention is at least 2-fold selective for inhibiting geranylgeranyl pyrophosphate synthase compared to FPTase or GGPTase. […]” for “enzyme.”

mammalian GGPP synthase = molecular target: T2, mammalian GGPP synthase (Homo sapiens, UniProt O95749); experiment: GGPP synthase enzyme inhibition; details: read-out: concentration range that inhibits GGPP synthase by 50%
T2 sequence (O95749 1-300): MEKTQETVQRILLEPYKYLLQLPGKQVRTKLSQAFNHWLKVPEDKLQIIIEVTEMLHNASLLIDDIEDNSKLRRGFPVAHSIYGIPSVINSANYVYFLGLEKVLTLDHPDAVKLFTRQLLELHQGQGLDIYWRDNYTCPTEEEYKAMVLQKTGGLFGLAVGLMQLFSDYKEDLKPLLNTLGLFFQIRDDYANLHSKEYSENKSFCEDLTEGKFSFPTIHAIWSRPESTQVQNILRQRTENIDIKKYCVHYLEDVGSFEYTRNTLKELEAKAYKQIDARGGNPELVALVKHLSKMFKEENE
Text: as §1

`CC(C)=CCC/C(C)=C/CC(C/C=C(\C)CCC=C(C)C)(P(=O)(O)O)P(=O)(O)O` [Compound 12, 1-(3,7-dimethyl-octa-2,6-dienyl)-4,8-dimethyl-nona-3,7-dienyl-1,1-bisphosphonic acid, tetrasodium salt] gave an IC50 (FPP synthase) of over 50 µM and an IC50 (FPTase) of over 50 µM.
Compound `CC(C)=CCC/C(C)=C/CC(C/C=C(\C)CCC=C(C)C)(P(=O)(OCOC(=O)C(C)(C)C)OCOC(=O)C(C)(C)C)P(=O)(OCOC(=O)C(C)(C)C)OCOC(=O)C(C)(C)C` [Compound 13, tetrapivaloyloxymethyl (E)-1,1-bis(4,8-dimethyl-nona-3,7-dienyl)-1,1-bisphosphonate] has an IC50 (mammalian GGPP synthase) of 0.001 to 0.01 µM, an IC50 (FPP synthase) of over 50 µM and an IC50 (FPTase) of over 50 µM.
